According to patent US5294632A, “Phosphono/biaryl substituted dipetide derivatives” (Ciba-Geigy Corporation, priority 1992, dated 1994):
pIC50: −log10 of the molar value.

What was measured:
[1] = molecular target: T1, Neutral endopeptidase 3.4.24.11 (Rattus norvegicus, UniProt P07861); experiment: in vitro inhibition of neutral endopeptidase (NEP) 3.4.24.11, GAAP substrate assay; assay type: biochemical; details: rat kidney cortex membranes, 500 μM GAAP substrate, pH 7.4, 25° C., 10 minutes
T1 construct: rat kidney cortex membranes prepared by method of Maeda et al, 1983; from tissue; host or cells: rat kidney cortex membranes
T1 sequence (P07861 1-750): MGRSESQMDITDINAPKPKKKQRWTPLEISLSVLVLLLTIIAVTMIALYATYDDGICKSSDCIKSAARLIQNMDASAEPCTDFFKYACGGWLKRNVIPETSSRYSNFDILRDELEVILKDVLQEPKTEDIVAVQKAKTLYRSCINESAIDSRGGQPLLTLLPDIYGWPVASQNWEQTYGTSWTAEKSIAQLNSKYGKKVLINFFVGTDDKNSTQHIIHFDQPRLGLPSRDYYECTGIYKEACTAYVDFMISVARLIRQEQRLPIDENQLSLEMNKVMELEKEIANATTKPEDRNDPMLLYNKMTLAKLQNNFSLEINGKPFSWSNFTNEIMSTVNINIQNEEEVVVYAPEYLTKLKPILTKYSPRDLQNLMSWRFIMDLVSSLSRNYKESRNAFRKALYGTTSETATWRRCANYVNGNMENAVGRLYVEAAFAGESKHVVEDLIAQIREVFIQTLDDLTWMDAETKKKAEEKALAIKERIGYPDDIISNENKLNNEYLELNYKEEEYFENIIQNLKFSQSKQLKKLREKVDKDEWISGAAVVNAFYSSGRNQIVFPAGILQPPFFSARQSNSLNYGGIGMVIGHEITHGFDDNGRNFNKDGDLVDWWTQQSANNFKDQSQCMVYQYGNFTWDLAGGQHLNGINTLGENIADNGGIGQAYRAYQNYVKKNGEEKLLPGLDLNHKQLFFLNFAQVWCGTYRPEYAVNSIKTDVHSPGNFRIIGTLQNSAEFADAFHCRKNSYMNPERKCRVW
Procedure: The in vitro inhibition of neutral endopeptidase (NEP) 3.4.24.11 can be determined as follows:
Neutral endopeptidase 3.4.24.11 activity is determined by the hydrolysis of the substrate glutaryl-Ala-Ala-Phe-2-naphthylamide (GAAP) using a modified procedure of Orlowski and Wilk (1981). The incubation mixture (total volume 125 μl) contains 4.2 μg of protein (rat kidney cortex membranes prepared by method of Maeda et al, 1983), 50 mM tris buffer, pH 7.4 at 25° C., 500 μM substrate (final concentration), and leucine aminopeptidase M (2.5 μg). The mixture is incubated for 10 minutes at 25° C. and 100 μl of fast garnet (250 μg fast garnet/ml of 10% Tween 20 in 1M sodium acetate, pH 4.2) is added. Enzyme activity is measured spectrophotometrically at 540 nm. One unit of NEP 24.11 activity is defined as 1 nmol of 2-naphthylamine released per minute at 25° C. at pH 7.4. IC50 values are determined, i.e. the concentration of test compound required for 50% inhibition of the release of 2-naphthylamine.
The test compound is dissolved in dimethyl sulfoxide or 0.25 M sodium bicarbonate solution, and the solution is diluted with pH 7.4 buffer to the desired concentration.
In vitro testing is most appropriate for the free phosphono/carboxylic acids of the invention.

ANF-induced natriuresis = experiment: potentiation of the natriuretic effect of ANF in anesthetized rats; assay type: in vivo, Male Sprague-Dawley rats; details: 30 mg/Kg in polyethylene glycol 400, intraduodenally; ANF 1 μg/kg i.v. bolus
Procedure: The potentiation of the natriuretic effect of ANF can be determined as follows:
Male Sprague-Dawley rats (280-360 g) are anesthetized with Inactin (100 mg/kg i.p.) and instrumented with catheters in the femoral artery, femoral vein and urinary bladder to measure arterial pressure, administer ANF and collect urine, respectively. A continuous infusion of normal saline (33 μl/min) is maintained throughout the experiment to promote diuresis and sodium excretion. The experimental protocol consists of an initial 15 minute collection period (designated as pre-control) followed by three additional collection periods. Immediately after completion of the pre-control period, test compound or vehicle is administered; nothing is done for the next 45 minutes. […] At the conclusion of this period, ANF is administered (1 μg/kg i.v. bolus) to all animals and arterial pressure and renal parameters are determined during two consecutive 15 minutes collection periods.
Mean arterial pressure, urine flow and urinary sodium excretion are determined for all collection periods. Blood pressure is measured with a Gould p50 pressure transducer, urine flow is determined gravimetrically, sodium concentration is measured by flame photometry, and urinary sodium excretion is calculated as the product of urine flow and urine sodium concentration.

[2] = test system: DOCA-salt hypertensive rats; experiment: antihypertensive effect in DOCA-salt hypertensive rats; assay type: in vivo; details: 30 mg/kg p.o., in PEG 400; DOCA-salt hypertensive rat
Procedure: The antihypertensive effect can be determined in desoxycorticosterone acetate (DOCA)-salt hypertensive rats.
DOCA-salt hypertensive rats (280-380 g) are prepared by the standard method. Rats underwent a unilateral nephrectomy and one week later are implanted with silastic pellets containing 100 mg/kg of DOCA. The rats are maintained on 1% NaCl/0.2% KCl drinking water for three to five weeks until sustained hypertension is established. The antihypertensive activity is evaluated at this time.
Two days before an experiment, the rats are anesthetized with methoxyflurane and instrumented with catheters in the femoral artery to measure arterial blood pressure. Forty-eight hours later, baseline arterial pressure and heart rate are recorded during a 1 hour period. The test compound (30 mg/kg p.o.) or vehicle is then administered and the same cardiovascular parameters are monitored for an additional 5 hours.

plasma ANF levels = experiment: effect on rat plasma ANF concentration during ANF infusion; assay type: in vivo, Male Sprague-Dawley rats; details: about 1-30 mg/kg p.o., in 10% ethanol/polyethylene glycol 400; ANF infused 450 ng/kg/min i.v.
Procedure: The effect of the compounds of the invention on rat plasma ANF concentration can be determined as follows:
Male Sprague-Dawley rats (275-390 g) are anesthetized with ketamine (150 mg/kg)/acepromazine (10%) and instrumented with catheters in the femoral artery and vein to obtain blood samples and infuse ANF, respectively. The rats are tethered with a swivel system and are allowed to recover for 24 hours before being studied in the conscious, unrestrained state.
In this assay, plasma ANF levels are determined in the presence and absence of NEP inhibition. On the day of study, all rats are infused continuously with ANF at 450 ng/kg/min. i.v. for the entire 5 hours of the experiment. Sixty minutes after beginning the infusion, blood samples for baseline ANF measurements are obtained (time 0) and the rats are then randomly divided into groups treated with the test compound or vehicle. Additional blood samples are taken 30, 60, 120, 180 and 240 minutes after administration of the test compound.
Plasma concentrations are determined by a specific radioimmunoassay. […] The supernatant is decanted and the pellets counted in a gamma counter. […] Plasma ANF levels are expressed as a percent of those measured in vehicle-treated animals which received ANF alone (450 ng/kg/min i.v.).

Row | pIC50 [1] | SMILES | potentiation of ANF-induced natriuresis (ANF-induced natriuresis) | reduction in blood pressure [2] | increase in plasma ANF levels (plasma ANF levels)
1 | ~8.37 | O=C(O)CCNC(=O)C(Cc1ccc(-c2ccccc2)cc1)NCP(=O)(O)O (centres unmarked) [N-[2-(phosphonomethylamino)-3-(4-biphenylyl)-propionyl]-3-aminopropionic acid] | – | – | –
2 | – | O=C(O)CCNC(=O)[C@H](Cc1ccc(-c2ccccc2)cc1)NCP(=O)(Oc1ccccc1)Oc1ccccc1 [(S)-N-[2-(diphenylphosphonomethylamino)-3-(4-biphenylyl)propionyl]-3-aminopropionic acid] | significant potentiation of ANF-induced natriuresis | significant reduction in blood pressure | significant increases in plasma ANF levels
3 | ~8.80 | O=C(O)CCNC(=O)[C@H](Cc1ccc(-c2ccccc2)cc1)NCP(=O)(O)O [(S)-antipode, S-(+)-N-[2-(phosphonomethylamino)-3-(4-biphenylyl)-propionyl]-3-aminopropionic acid] | – | – | –
